From PubChem BioAssay AID248 (DTP/NCI, 2004)
Where “and” joins values, the source holds several entries; their conditions need not be identical. Equal values may be shown once. Toxic doses and inconclusive results are not listed. Rule as the data show it: active = T/C of 150% or more; inactive = T/C below 125%.

Test system: L1210 leukemia ip in BDF1 mice, survival T/C
Experiment: NCI In Vivo Anticancer Drug Screen. Data for tumor model L1210 Leukemia (intraperitoneal) in B6D2F1 (BDF1) mice
Details: endpoint: mean survival time, higher = longer survival
In short: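 Tumor cells were implanted, animals were treated, and survival was followed. The result divides the treated measurement by the vehicle-control measurement.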

[1] = dose: 100.0 mg/kg/injection, schedule: Q04DX003 (ip), vehicle: saline with Tween-80
[2] = dose: 200.0 mg/kg/injection, schedule: Q04DX003 (ip), vehicle: saline with Tween-80
[3] = dose: 400.0 mg/kg/injection, schedule: Q04DX003 (ip), vehicle: saline with Tween-80
[4] = dose: 100.0 mg/kg/injection, schedule: Q04DX002 (ip), vehicle: saline
[5] = dose: 200.0 mg/kg/injection, schedule: Q04DX002 (ip), vehicle: saline
[6] = dose: 400.0 mg/kg/injection, schedule: Q04DX002 (ip), vehicle: saline

Measured: T/C

CCOC(=O)CCN1CC(C)OC(C)C1 (stereo unspecified)
inactive: dose: 100.0 mg/kg/injection, schedule: Q01DX009 (ip), vehicle: saline 97 % of control | dose: 100.0 mg/kg/injection, schedule: Q04DX003 (ip), vehicle: saline 93 % of control | dose: 200.0 mg/kg/injection, schedule: Q01DX009 (ip), vehicle: saline 97 % of control | dose: 200.0 mg/kg/injection, schedule: Q04DX003 (ip), vehicle: saline 102 % of control | dose: 400.0 mg/kg/injection, schedule: Q01DX009 (ip), vehicle: saline 103 % of control | dose: 400.0 mg/kg/injection, schedule: Q04DX003 (ip), vehicle: saline 111 % of control

COc1ccc(/C=N/n2c(=O)[nH]nc(C)c2=O)c(OC)c1OC
inactive: dose: 100.0 mg/kg/injection, schedule: Q01DX009 (ip), vehicle: acetone 96 % of control | [1] 112 % of control | dose: 200.0 mg/kg/injection, schedule: Q01DX009 (ip), vehicle: acetone 93 % of control | [2] 117 % of control | dose: 400.0 mg/kg/injection, schedule: Q01DX009 (ip), vehicle: acetone 102 % of control | [3] 109 % of control

COC(=O)c1[nH]cnc1/N=N/Nc1ccc(Cl)c(Cl)c1
inactive: dose: 50.0 mg/kg/injection, schedule: Q01DX001 (ip), vehicle: other 94 % of control | dose: 100.0 mg/kg/injection, schedule: Q01DX001 (ip), vehicle: other 95 % of control and 103 % of control | dose: 200.0 mg/kg/injection, schedule: Q01DX001 (ip), vehicle: other 105 % of control and 110 % of control | dose: 400.0 mg/kg/injection, schedule: Q01DX001 (ip), vehicle: other 97 % of control and 100 % of control

COC1OC(CCl)C(OC(C)=O)C(OC(C)=O)C1OS(C)(=O)=O (stereo unspecified)
inactive: dose: 100.0 mg/kg/injection, schedule: Q04DX002 (ip), vehicle: Klucel (hydroxypropylcellulose) (HPC) 91 % of control | dose: 200.0 mg/kg/injection, schedule: Q04DX002 (ip), vehicle: Klucel (hydroxypropylcellulose) (HPC) 91 % of control | dose: 400.0 mg/kg/injection, schedule: Q04DX002 (ip), vehicle: Klucel (hydroxypropylcellulose) (HPC) 97 % of control

Oc1ccccc1C=Nc1cc(Cl)ccc1O
inactive: dose: 100.0 mg/kg/injection, schedule: Q01DX001 (ip), vehicle: saline 97 % of control | dose: 200.0 mg/kg/injection, schedule: Q01DX001 (ip), vehicle: saline 95 % of control | dose: 400.0 mg/kg/injection, schedule: Q01DX001 (ip), vehicle: saline 103 % of control

CC1(C)Cc2cccc(C=C(C#N)C#N)c2O1
inactive: dose: 100.0 mg/kg/injection, schedule: Q04DX003 (ip), vehicle: Klucel (hydroxypropylcellulose) (HPC) 106 % of control | dose: 200.0 mg/kg/injection, schedule: Q04DX003 (ip), vehicle: Klucel (hydroxypropylcellulose) (HPC) 97 % of control | dose: 400.0 mg/kg/injection, schedule: Q04DX003 (ip), vehicle: Klucel (hydroxypropylcellulose) (HPC) 113 % of control

O=C1OC(c2ccccc2)=C/C1=C/c1ccc(Cl)cc1
inactive: dose: 25.0 mg/kg/injection, schedule: Q04DX003 (ip), vehicle: alcohol 88 % of control | dose: 50.0 mg/kg/injection, schedule: Q04DX003 (ip), vehicle: alcohol 90 % of control | dose: 100.0 mg/kg/injection, schedule: Q01DX001 (ip), vehicle: alcohol 86 % of control | dose: 100.0 mg/kg/injection, schedule: Q04DX003 (ip), vehicle: alcohol 87 % of control | dose: 150.0 mg/kg/injection, schedule: Q01DX009 (ip), vehicle: alcohol 89 % of control | dose: 150.0 mg/kg/injection, schedule: Q04DX003 (ip), vehicle: alcohol 87 % of control | dose: 225.0 mg/kg/injection, schedule: Q01DX009 (ip), vehicle: alcohol 86 % of control | dose: 225.0 mg/kg/injection, schedule: Q04DX003 (ip), vehicle: alcohol 91 % of control | dose: 335.0 mg/kg/injection, schedule: Q01DX009 (ip), vehicle: alcohol 107 % of control | dose: 335.0 mg/kg/injection, schedule: Q04DX003 (ip), vehicle: alcohol 90 % of control

Cc1ccc(N=Nc2sc(N)nc2C)cc1
inactive: dose: 75.0 mg/kg/injection, schedule: Q01DX001 (ip), vehicle: saline 97 % of control | dose: 150.0 mg/kg/injection, schedule: Q01DX001 (ip), vehicle: saline 102 % of control

Nc1nc(=O)n(CCCOc2ccc(NC(=O)Nc3cccc(S(=O)(=O)F)c3)cc2)cc1-c1ccc(Cl)c(Cl)c1
inactive: dose: 50.0 mg/kg/injection, schedule: Q01DX001 (ip), vehicle: saline with Tween-80 98 % of control | dose: 100.0 mg/kg/injection, schedule: Q01DX001 (ip), vehicle: saline with Tween-80 98 % of control | dose: 200.0 mg/kg/injection, schedule: Q01DX001 (ip), vehicle: saline with Tween-80 95 % of control

C=CC[n+]1cccc2ccccc21
inactive: dose: 12.5 mg/kg/injection, schedule: Q01DX009 (ip), vehicle: saline 97 % of control | dose: 12.5 mg/kg/injection, schedule: Q04DX003 (ip), vehicle: saline 98 % of control | dose: 25.0 mg/kg/injection, schedule: Q01DX009 (ip), vehicle: saline 101 % of control | dose: 25.0 mg/kg/injection, schedule: Q04DX003 (ip), vehicle: saline 104 % of control | dose: 50.0 mg/kg/injection, schedule: Q01DX009 (ip), vehicle: saline 99 % of control | dose: 50.0 mg/kg/injection, schedule: Q04DX003 (ip), vehicle: saline 98 % of control

COc1ccc(C(=Nc2ccccc2)C(=Nc2ccccc2)c2ccc(OC)cc2)cc1
inactive: [1] 88 % of control | [2] 89 % of control | [3] 91 % of control

O=CN(O)CC(=O)O
inactive: dose: 62.5 mg/kg/injection, schedule: Q01DX010 (ip), vehicle: saline 95 % of control and 98 % of control | dose: 62.5 mg/kg/injection, schedule: Q01DX Z (ip), vehicle: saline 93 % of control | dose: 125.0 mg/kg/injection, schedule: Q01DX010 (ip), vehicle: saline 95 % of control | dose: 125.0 mg/kg/injection, schedule: Q01DX Z (ip), vehicle: saline 98 % of control | dose: 250.0 mg/kg/injection, schedule: Q01DX010 (ip), vehicle: saline 98 % of control and 106 % of control | dose: 250.0 mg/kg/injection, schedule: Q01DX Z (ip), vehicle: saline 92 % of control | dose: 500.0 mg/kg/injection, schedule: Q01DX010 (ip), vehicle: saline 96 % of control and 101 % of control | dose: 500.0 mg/kg/injection, schedule: Q01DX Z (ip), vehicle: saline 88 % of control | dose: 575.0 mg/kg/injection, schedule: Q02DX010 (ip), vehicle: other 101 % of control | dose: 860.0 mg/kg/injection, schedule: Q02DX010 (ip), vehicle: other 107 % of control | dose: 1300.0 mg/kg/injection, schedule: Q02DX010 (ip), vehicle: other 105 % of control | dose: 2000.0 mg/kg/injection, schedule: Q02DX010 (ip), vehicle: other 106 % of control | dose: 3000.0 mg/kg/injection, schedule: Q02DX010 (ip), vehicle: other 117 % of control

CC1(C)OCC(C2OC(N)C3OC(C)(C)OC32)O1 (stereo unspecified)
inactive: [4] 97 % of control | [5] 113 % of control | [6] 103 % of control

Cc1nc(N)nn1C
inactive: [4] 97 % of control | [5] 110 % of control | [6] 100 % of control

O=c1oc2ccc(F)cc2c2ccccc12
inactive: dose: 100.0 mg/kg/injection, schedule: Q01DX001 (ip), vehicle: Klucel (hydroxypropylcellulose) (HPC) 92 % of control | dose: 200.0 mg/kg/injection, schedule: Q01DX001 (ip), vehicle: Klucel (hydroxypropylcellulose) (HPC) 103 % of control | dose: 400.0 mg/kg/injection, schedule: Q01DX001 (ip), vehicle: Klucel (hydroxypropylcellulose) (HPC) 90 % of control
